Measured values published in US10729680B2, “5-substituted 2-(morpholin-4-yl)-1,7-naphthyridines” (BAYER PHARMA AKTIENGESELLSCHAFT, priority 2016, dated 2020).

Key:
[1] = target: full-length human ATR protein (ATR/ATRIP) (Homo sapiens (Human), UniProt Q13535); experiment: Binding Assay ATR (TR-FRET, tracer A displacement); conditions: displacement of fluorescent tracer A from GST-ATR/ATRIP
Outline: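 GST-tagged full-length human ATR co-purified with ATRIP, 4.2 nM stock working solution, pre-complexed 30 min with 4.2 nM anti-GST-Tb in HEPES pH 7.0/MgCl2/DTT buffer. Compound pre-bound 10 min, then tracer A (100 nM solution) added for 30 min at 22 °C. 570/545 nm TR-FRET ratio; 11 concentrations 20 μM-0.1 nM; IC50 by 4-parameter fit.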

[2] = tested on: HeLa cells; experiment: Proliferation assay (HeLa, crystal violet); assay type: cell-based; conditions: Homo sapiens, 96 h, 4 days incubation, crystal violet staining, read-out: Inhibition of HeLa cell proliferation
Protocol: Human tumour cells were originally obtained from the American Type Culture Collection (ATCC), the Deutsche Sammlung von Mikroorganismen und Zellkulturen (DSMZ, German Collection of Microorganisms and Cell Cultures) or Epo GmbH, Berlin.
Adherently growing cells (HeLa, HeLa-MaTu-ADR, HT-144, Lovo, HT-29, NCI-H460, DU145, Caco2, B16F10) were plated out in a density of 1500-4000 cells/measurement point, depending on the rate of growth of the cell line, in a 96-well multititre plate in 200 μl of growth medium (DMEM/HAMS F12, 2 mM L-glutamine, 10% foetal calf serum). After 24 hours, the cells of one plate (zero plate) were dyed with crystal violet (see below), whereas the medium of the other plates was replaced with fresh culture medium (200 μl) to which the test substances were added in various concentrations (0 μM, and also in the range of 0.001-10 μM; the final concentration of the solvent dimethyl sulphoxide was 0.1 or 0.5%). The cells were incubated for 4 days in the presence of the test substances. Cell proliferation was determined by staining the cells with crystal violet: the cells were fixed at room temperature for 15 min by adding 20 μl/measurement point of an 11% strength glutaraldehyde solution. After washing the fixed cells three times with water, the plates were dried at room temperature. The cells were stained by adding 100 μl/measurement point of a 0.1% strength crystal violet solution (pH adjusted to pH 3 by adding acetic acid). After washing the cells three times with water, the plates were dried at room temperature. The dye was dissolved by adding 100 μl/measurement point of a 10% strength acetic acid solution. Absorbance was determined photometrically at a wavelength of 595 nm. The percentage change in cell growth was calculated by normalizing the measured values to the absorbance values of the zero plate (=0%) and the absorbance of the untreated (0 μM) cells (=100%). The IC50 values were determined by means of a four parameter fit.
Inhibition of proliferation of HeLa cells by compounds according to the present invention, determined as described above. All IC50 (inhibitory concentration at 50% of maximal effect) values are indicated in M, “n.t.” means that the compounds have not been tested in the respective assay.

Chain of full-length human ATR protein (ATR/ATRIP) (Q13535 other isoform, or with tags, fused parts or gaps): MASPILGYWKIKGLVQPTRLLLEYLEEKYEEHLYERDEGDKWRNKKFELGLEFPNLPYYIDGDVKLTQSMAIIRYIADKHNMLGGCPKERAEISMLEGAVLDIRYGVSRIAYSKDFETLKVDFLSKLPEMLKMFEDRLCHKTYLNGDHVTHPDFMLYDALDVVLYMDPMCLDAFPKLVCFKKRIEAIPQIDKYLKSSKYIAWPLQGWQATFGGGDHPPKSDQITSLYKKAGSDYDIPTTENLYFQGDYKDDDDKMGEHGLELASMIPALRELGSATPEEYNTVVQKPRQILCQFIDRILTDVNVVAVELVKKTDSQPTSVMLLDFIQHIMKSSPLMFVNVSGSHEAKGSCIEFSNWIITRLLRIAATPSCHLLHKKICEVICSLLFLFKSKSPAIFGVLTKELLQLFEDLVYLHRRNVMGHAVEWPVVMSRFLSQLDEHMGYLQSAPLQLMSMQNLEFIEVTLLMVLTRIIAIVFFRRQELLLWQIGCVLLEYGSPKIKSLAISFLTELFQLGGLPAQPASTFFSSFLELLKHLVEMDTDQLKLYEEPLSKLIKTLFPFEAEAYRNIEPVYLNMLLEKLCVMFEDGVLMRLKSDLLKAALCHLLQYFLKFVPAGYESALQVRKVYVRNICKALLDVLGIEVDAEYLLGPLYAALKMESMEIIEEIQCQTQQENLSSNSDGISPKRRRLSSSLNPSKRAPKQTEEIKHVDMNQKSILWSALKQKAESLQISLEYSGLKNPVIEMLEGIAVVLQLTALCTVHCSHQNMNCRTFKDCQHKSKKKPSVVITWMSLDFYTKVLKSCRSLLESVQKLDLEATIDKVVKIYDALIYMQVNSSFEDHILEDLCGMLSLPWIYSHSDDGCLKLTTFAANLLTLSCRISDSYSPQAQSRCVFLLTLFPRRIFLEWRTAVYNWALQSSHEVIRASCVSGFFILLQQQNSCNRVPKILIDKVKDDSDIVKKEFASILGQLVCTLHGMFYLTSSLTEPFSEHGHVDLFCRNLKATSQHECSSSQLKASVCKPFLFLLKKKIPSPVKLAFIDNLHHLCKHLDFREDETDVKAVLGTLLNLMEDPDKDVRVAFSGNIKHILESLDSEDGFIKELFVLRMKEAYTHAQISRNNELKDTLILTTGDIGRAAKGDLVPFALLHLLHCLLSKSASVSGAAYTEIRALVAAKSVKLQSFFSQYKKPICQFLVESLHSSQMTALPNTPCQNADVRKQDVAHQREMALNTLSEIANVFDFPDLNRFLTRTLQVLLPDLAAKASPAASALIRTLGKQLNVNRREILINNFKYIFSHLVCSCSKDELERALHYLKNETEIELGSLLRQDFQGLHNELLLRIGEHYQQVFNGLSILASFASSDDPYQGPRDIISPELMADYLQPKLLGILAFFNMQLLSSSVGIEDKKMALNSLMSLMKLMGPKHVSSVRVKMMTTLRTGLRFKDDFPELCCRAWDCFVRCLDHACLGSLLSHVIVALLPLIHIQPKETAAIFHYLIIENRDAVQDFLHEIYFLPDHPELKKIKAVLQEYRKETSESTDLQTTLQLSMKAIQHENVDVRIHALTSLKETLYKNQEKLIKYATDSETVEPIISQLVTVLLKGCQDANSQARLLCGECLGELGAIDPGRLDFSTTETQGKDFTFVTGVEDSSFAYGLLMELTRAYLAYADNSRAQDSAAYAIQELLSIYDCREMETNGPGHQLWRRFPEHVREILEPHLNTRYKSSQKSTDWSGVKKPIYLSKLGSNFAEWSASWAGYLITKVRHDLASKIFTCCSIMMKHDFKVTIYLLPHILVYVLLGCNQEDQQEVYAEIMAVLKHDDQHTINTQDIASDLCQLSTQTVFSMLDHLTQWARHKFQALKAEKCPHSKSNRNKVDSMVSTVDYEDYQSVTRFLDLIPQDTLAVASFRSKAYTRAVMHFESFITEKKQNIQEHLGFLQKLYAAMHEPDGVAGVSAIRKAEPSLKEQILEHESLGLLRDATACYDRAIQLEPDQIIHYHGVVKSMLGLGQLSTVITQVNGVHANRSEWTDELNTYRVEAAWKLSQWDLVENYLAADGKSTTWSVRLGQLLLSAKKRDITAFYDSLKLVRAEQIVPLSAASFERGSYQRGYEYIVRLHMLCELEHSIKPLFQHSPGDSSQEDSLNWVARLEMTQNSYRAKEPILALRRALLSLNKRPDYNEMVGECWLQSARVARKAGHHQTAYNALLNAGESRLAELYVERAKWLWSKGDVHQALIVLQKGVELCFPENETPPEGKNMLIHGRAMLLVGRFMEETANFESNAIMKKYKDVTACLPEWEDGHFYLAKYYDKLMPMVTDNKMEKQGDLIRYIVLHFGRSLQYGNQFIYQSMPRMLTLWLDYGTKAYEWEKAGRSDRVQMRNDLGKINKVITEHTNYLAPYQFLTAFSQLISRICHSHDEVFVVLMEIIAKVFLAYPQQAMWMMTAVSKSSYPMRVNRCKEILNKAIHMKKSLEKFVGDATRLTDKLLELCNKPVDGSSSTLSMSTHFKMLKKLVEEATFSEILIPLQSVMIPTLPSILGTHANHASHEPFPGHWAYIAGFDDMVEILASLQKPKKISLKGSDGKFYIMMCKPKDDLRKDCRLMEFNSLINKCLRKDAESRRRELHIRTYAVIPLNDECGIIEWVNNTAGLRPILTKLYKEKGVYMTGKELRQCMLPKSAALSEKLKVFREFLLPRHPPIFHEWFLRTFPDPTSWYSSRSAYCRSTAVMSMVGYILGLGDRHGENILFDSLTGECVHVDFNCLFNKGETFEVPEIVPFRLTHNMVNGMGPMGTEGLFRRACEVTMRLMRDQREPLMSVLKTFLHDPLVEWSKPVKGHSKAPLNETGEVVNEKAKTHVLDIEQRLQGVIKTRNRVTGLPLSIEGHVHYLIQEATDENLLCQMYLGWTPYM
Chain of full-length human ATR protein (ATR/ATRIP) (Q8WXE1 other isoform, or with tags, fused parts or gaps partner): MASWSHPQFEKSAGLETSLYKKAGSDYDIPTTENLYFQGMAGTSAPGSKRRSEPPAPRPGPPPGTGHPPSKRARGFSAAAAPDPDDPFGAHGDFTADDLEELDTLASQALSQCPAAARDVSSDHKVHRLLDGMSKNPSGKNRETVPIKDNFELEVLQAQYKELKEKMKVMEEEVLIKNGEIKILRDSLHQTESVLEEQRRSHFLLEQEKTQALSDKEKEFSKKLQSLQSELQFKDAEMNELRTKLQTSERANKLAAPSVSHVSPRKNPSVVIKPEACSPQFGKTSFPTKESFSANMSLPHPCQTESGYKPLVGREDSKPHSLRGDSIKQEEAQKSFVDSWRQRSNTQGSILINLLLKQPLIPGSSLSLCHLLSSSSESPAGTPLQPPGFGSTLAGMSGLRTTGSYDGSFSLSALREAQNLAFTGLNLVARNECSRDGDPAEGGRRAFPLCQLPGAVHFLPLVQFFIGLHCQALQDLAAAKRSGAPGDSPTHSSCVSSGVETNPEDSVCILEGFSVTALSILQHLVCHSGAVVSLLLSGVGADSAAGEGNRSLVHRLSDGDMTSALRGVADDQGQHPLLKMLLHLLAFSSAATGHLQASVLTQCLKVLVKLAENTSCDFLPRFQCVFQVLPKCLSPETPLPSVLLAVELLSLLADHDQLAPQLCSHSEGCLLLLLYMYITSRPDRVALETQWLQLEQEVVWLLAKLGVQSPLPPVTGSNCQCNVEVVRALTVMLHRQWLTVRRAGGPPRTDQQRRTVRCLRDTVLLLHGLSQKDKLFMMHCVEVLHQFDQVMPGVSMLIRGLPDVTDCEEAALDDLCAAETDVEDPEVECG

SMILES: Cc1cnc(-c2ccn[nH]2)c2nc(N3CCOC[C@H]3C)cc(N=S3(=O)CCCC3)c12 [Example 8, N-5-methyl-2-[(3R)-3-methylmorpholin-4-yl]-8-(1H-pyrazol-5-yl)-1,7-naphthyridin-4-yltetrahydro-1H-1λ^4-thiophen-1-imine 1-oxide]
- IC50 [1]: 35.5 nM
- IC50 [2]: 473 nM
